Converted amounts (≈) assume the structure as drawn.

System in one data set: not listed separately
The data set is described as follows: physchem. Particulars: buffer, pH 7.4.
Consider `CCc1cc(OC)cc2c(/C=N/NC(=N)NCCc3cccnc3)c[nH]c12`, for which the kinetic solubility (commonly the concentration staying in solution when a stock, usually in DMSO, is diluted into the medium) at 2 h came to 74.6 µM (≈ 27.2 µg/mL).

`CCc1cc(OC)cc2c(/C=N/NC(=N)NCCc3ccc(F)cc3)c[nH]c12` gave a kinetic solubility at 2 h of 19.5 µM (≈ 7.44 µg/mL).

In the next data set the target is T1, Relaxin-3 receptor 1 (Homo sapiens, UniProt Q9NSD7).
T1 sequence (Q9NSD7 whole entry): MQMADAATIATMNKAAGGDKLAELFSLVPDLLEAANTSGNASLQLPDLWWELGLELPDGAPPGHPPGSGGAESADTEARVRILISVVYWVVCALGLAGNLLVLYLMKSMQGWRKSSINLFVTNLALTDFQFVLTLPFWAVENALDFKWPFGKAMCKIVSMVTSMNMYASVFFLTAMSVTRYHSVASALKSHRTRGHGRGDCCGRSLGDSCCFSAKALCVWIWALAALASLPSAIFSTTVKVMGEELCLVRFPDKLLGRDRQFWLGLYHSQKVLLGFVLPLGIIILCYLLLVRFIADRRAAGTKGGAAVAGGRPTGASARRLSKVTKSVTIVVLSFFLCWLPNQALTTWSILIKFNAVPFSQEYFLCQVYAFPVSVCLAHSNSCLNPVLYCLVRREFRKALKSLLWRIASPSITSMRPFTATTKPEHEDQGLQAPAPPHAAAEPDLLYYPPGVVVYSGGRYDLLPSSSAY
The data set is described as follows: biochemical.
Details: not given
On to `COc1cc(C)c2[nH]cc(/C=N/NC(=N)NCCc3ccc(C#N)cc3)c2c1`, for which affinity was put at a Ki of 268 nM.

For another data set, the target named is Relaxin-3 receptor 2 (Homo sapiens, UniProt Q8TDU9).
Relaxin-3 receptor 2, sequence (Q8TDU9 whole entry): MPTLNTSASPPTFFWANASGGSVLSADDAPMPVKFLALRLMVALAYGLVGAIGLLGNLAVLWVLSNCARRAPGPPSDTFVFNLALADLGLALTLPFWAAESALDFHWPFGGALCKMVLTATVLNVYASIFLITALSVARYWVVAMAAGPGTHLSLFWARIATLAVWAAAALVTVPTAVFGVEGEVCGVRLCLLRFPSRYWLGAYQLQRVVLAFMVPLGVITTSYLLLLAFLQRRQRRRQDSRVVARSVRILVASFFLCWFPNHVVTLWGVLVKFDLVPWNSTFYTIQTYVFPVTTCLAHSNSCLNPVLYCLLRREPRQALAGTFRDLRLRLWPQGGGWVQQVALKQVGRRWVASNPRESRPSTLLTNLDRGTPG
Experiment: not given
Details: not given
On to `CCc1cc(C#N)cc2c(/C=N/NC(=N)NCCc3cccnc3)c[nH]c12`, for which the EC50 (usually the concentration needed to bring the measured effect to its halfway point) was 0.9 nM. Still for that read-out and setting: under `CCc1cc(O)cc2c(/C=N/NC(=N)NCCc3ccc(Cl)cc3)c[nH]c12` stands 0.8 nM; under `COC(=O)c1ccc(CCNC(=N)N/N=C/c2c[nH]c3c(C)cc(C#N)cc23)cc1`, 2.7 nM; under `COC(=O)c1ccc(CCNC(=N)N/N=C/c2c[nH]c3c(C)cc(OC)cc23)cc1`, 3.4 nM. Same read-out and setting: then `CCc1cc(OC)cc2c(/C=N/NC(=N)NCCc3cccnc3)c[nH]c12`, with 1.1 nM; and `CCc1cc(OC)cc2c(/C=N/NC(=N)NCCc3ccc(F)cc3)c[nH]c12`, with 4 nM. `CCc1cc(OC)cc2c(/C=N/NC(=N)NCCc3ccc(C#N)cc3)c[nH]c12` came in with an EC50 of 1.8 nM.

The next data set deals with T1, Relaxin-3 receptor 1.
Experiment: not given
Details: not given
For `N=C(NCCc1ccc(Cl)cc1)N/N=C/c1c[nH]c2cc(F)ccc12`, the midpoint of the response, the EC50, lay at 3470 nM. Still for that read-out and setting: then `N=C(NCCc1ccc(Cl)cc1)N/N=C/c1c[nH]c2cccc(F)c12`, with 3210 nM; and `N#Cc1ccc2[nH]cc(/C=N/NC(=N)NCCc3ccc(Cl)cc3)c2c1`, with 253 nM; and `COc1cc(C)c2[nH]cc(/C=N/NC(=N)NCCc3ccc(Cl)cc3)c2c1`, with 74.7 nM. Same read-out and setting: under `N=C(NCCc1ccc(Cl)cc1)N/N=C/c1c[nH]c2c(F)cccc12` stands 2790 nM; under `COc1cc(C)c2[nH]cc(/C=N/NC(=N)Nc3ccc(Cl)cc3)c2c1`, 3120 nM; under `Cc1ccc2c(/C=N/NC(=N)NCCc3ccc(Cl)cc3)c[nH]c2c1`, 7440 nM. Same read-out and setting: under `Cc1cc(C#N)cc2c(/C=N/NC(=N)NCCc3ccc(Cl)cc3)c[nH]c12` stands 82.3 nM; under `COc1cc(C)c2[nH]cc(/C=N/NC(=N)NCc3ccc(Cl)cc3)c2c1`, 3950 nM. Take `COc1cc(C)c2[nH]cc(/C=N/NC(=N)NCCCc3ccc(Cl)cc3)c2c1`: the EC50 was 1660 nM. In turn, `COc1ccc2c(/C=N/NC(=N)NCCc3ccc(Cl)cc3)c[nH]c2c1` returned an EC50 of 4750 nM. Still for that read-out and setting: under `N=C(NCCc1ccc(Cl)cc1)N/N=C/c1c[nH]c2ccc(F)cc12` stands 1360 nM; under `N=C(NCCc1ccc(Cl)cc1)N/N=C/c1c[nH]c2ccc([N+](=O)[O-])cc12`, 317 nM; under `COc1ccc(CCNC(=N)N/N=C/c2c[nH]c3c(C)cc(OC)cc23)cc1`, 56.1 nM. The same measure, in the same setting: under `N=C(NCCc1ccc(Cl)cc1)N/N=C/c1c[nH]c2ccc(Cl)cc12` stands 2820 nM; under `COc1cc(C)c2[nH]cc(/C=N/NC(=N)NCCc3ccccc3)c2c1`, 224 nM. Still for that read-out and setting: then `COc1cc(C)c2[nH]cc(/C=N/NC(=N)NCCc3ccc(N(C)C)cc3)c2c1`, with 98.4 nM. In the case of `COC(=O)c1ccc(CCNC(=N)N/N=C/c2c[nH]c3c(C)cc(OC)cc23)cc1`, the concentration for a half-maximal effect (EC50) was found to be 7.7 nM.

In turn, `CCc1cc(OC)cc2c(/C=N/NC(=N)NCCc3cccnc3)c[nH]c12` came in with an EC50 of 2.3 nM. Still for that read-out and setting: under `N=C(NCCc1ccc(Cl)cc1)N/N=C/c1c[nH]c2ccccc12` stands 6940 nM; under `Cc1cccc2c(/C=N/NC(=N)NCCc3ccc(Cl)cc3)c[nH]c12`, 647 nM; under `COc1cc(C)c2[nH]cc(/C=N/NC(=N)NCCc3ccc(Br)cc3)c2c1`, 69.9 nM.

The molecule `COc1cc(C)c2[nH]cc(/C=N/NC(=N)NCCc3ccccn3)c2c1` had a concentration giving a half-maximal response (EC50) of 855 nM. On to `COc1cc(C)c2[nH]cc(/C=N/NC(=N)NCCc3ccc(C#N)cc3)c2c1`, for which the EC50 came out at 13.2 nM. The same measure, in the same setting: under `COc1cc(C)c2[nH]cc(/C=N/NC(=N)NCCc3ccc(I)cc3)c2c1` stands 67 nM. Same read-out and setting: then `COc1ccc2[nH]cc(/C(C)=N/NC(=N)NCCc3ccc(Cl)cc3)c2c1`, with 7690 nM; and `CCc1cc(OC)cc2c(/C=N/NC(=N)NCCc3ccc(Cl)cc3)c[nH]c12`, with 19.5 nM. Same read-out and setting: then `COc1cc(C)c2[nH]cc(/C=N/NC(=N)NCCc3ccc([N+](=O)[O-])cc3)c2c1`, with 13.6 nM; and `CCc1cc(OC)cc2c(/C=N/NC(=N)NCCc3ccc(F)cc3)c[nH]c12`, with 5.6 nM.

The values are drawn from ChEMBL document CHEMBL5032539, “Indole-Containing Amidinohydrazones as Nonpeptide, Dual RXFP3/4 Agonists: Synthesis, Structure-Activity Relationship, and Molecular Modeling Studies” (J Med Chem, 2021).
